From patent US12624031B2, “Inhibitors of ubiquitin specific peptidase 22 (USP22) and uses thereof for treating diseases and disorders” (Northwestern University, priority 2022, dated 2026)
Each block holds one molecule with its values, some of them ahead of it.

Tests used:
[1] = target: human GST-USP22 with Sgf11, Sgf73 1-105 and Sus1 (Homo sapiens, UniProt Q9UPT9); assay: in vitro USP22 deubiquitination assay (re-constructed deubiquitination module); type: biochemical; conditions: for IC50: customized deubiquitination assay, human GST-USP22 with Sgf11, Sgf73 1-105, Sus1, read-out: IC50 in suppressing USP22 in vitro catalytic activity
Description: (A) The chemical structure of S02-S106 11-((4-cyanophenyl)amino)-7,8,9,10-tetrahydrobenzo(4,5)imidazole[1,2-b]isoquinoline-6-carbonitrile, (B & C) The efficacy of USP22i-S02 analogs in inhibiting USP22 catalytic activity was determined in vitro. The representative data from a triplicate analysis of S02-S106 with S02 as a control are shown (B). The IC50 of USP22i-S02 analogs in suppressing USP22 in vitro catalytic activity are shown (C). NA, not available.
We purchased human recombinant Sgf11 and Sgf73 1-105 and Sus1 proteins from R&D Systems Inc, and re-constructed the deubiquitination activity with our human GST-USP22. The USP22 customized deubiquitination was optimized and used for in vitro screening the activity of synthetic USP22i-s02 analogs with the USP22i-s02 as a control (FIG. 12).

[2] = system: polarized CD4+ T-regulatory cells; assay: cytotoxicity in polarized CD4+ T-regulatory cells; type: cell-based, murine; conditions: for cytotoxicity to Tregs: 156 ng/mL to 5 ug/mL, compared to DMSO controls; for toxicity: Example 5, no concentration given
Description: FIG. 2: Cytotoxicity of compounds from 156 ng/mL to 5 ug/mL concentration range in polarized CD4+ T-regulatory cells. Murine CD4+ T-cells were isolated and polarized in vitro to T-regulatory cells using 5 ng/mL IL-2, 2 μg/mL anti-IL-4, 2 μg/mL anti-IFNγ, and 1 ng/mL TGFβ. After 48 hours, the inhibitors were added to the cells.
We then synthesized all 17 compounds and validated their cytotoxicity to regulatory T cells. To this end, mouse CD4 T cells were polarized to FoxP3 Tregs for two days, followed by treatment of the cells with each of the compounds at the doses upto 5 ug/ml. […] In addition, the rest of the compounds had poor solubility in DMSO, and were not further tested.

[3] = system: FoxP3 expression in CD4+ natural T-regulatory cells; assay: FoxP3 expression in natural T-regulatory cells by flow cytometry; type: cell-based, murine
Description: FIGS. 3 and 4: Change in FoxP3 expression in murine CD4+ natural T-regulatory cells. Murine lymphocytes were isolated from the spleens and lymph nodes and cultured with varying concentrations of inhibitor (0.25 μg/mL to 2 μg/mL) or DMSO, anti-CD3, anti-CD28, TGFβ, and IL-2. After two days, lymphocytes were analyzed by flow cytometry for FoxP3 expression in natural T-regulatory (nTregs) gated on CD3+CD4+CD25+FoxP3+. (FIG. 3) Representative histograms of FITC::FoxP3 MFI in nTregs cultured with inhibitors at a concentration of 2 μg/mL. (FIG. 4) Representative plot of FITC::FoxP3 geometric MFI in nTregs across different concentrations of inhibitor.
We then analyzed whether treatment of Tregs with the compounds S106, 107 and 110 inhibits USP22 activity in Tregs as measured by FoxP3 expression levels by flow cytometry.

[4] = system: PD-L1 expression in A549 cells; assay: PD-L1 expression in A549 cells by flow cytometry; type: cell-based, human
Description: FIG. 13: The effects of USP22i-S02-S106 on suppression of PD-L1 expression on human lung adenocarcinoma cells. Human […] lung adenocarcinoma A549 cells were treated with S02-S106 or its lead compound S02 for 48 hours. The expression levels of PD-L1 were determined by flow cytometry. (A) Representative flow data from A549 cells treated with 2 μM S02-S106 or with 15 μM S02 are shown. DMSO treated cells were used as an untreated control and USP22 CRISPR knockout A549 cells were used as a positive control. (B) The dose-dependent inhibition of PD-L1 expression in A549 cells by S02-S106 with USP22i-S02 as a control. Data were normalized with PD-L1 expression levels in USP22-KO cells as 100% of USP22 inhibition as shown in A. (C) Inhibition of PD-L1 expression in WT and USP22-null A549 cells by S02-S106.
We then used PD-L1 expression level as a measurement to evaluate the inhibitory efficacy of USP22 by S02-S106.
To determine the specificity of USP22i-S02-S106, we treated the WT and USP22-null lung cancer cells.

human GST-USP22 with Sgf11, Sgf73 1-105 and Sus1, sequence (Q9UPT9 whole entry): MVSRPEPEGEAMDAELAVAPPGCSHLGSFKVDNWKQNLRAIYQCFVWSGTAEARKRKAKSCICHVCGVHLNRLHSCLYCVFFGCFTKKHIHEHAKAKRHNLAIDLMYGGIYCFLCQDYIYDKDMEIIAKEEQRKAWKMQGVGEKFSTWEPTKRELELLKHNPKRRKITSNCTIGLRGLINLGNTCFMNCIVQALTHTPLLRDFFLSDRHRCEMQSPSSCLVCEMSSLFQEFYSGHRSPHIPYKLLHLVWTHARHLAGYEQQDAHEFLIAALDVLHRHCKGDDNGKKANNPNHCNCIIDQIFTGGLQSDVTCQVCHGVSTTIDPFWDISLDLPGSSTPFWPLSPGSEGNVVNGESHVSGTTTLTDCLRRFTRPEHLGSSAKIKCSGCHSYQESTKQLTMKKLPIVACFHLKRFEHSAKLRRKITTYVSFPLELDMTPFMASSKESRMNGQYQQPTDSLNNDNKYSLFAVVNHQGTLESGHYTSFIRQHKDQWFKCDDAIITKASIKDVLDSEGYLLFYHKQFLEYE
human GST-USP22 with Sgf11, Sgf73 1-105 and Sus1, sequence (Q14CW9 whole entry partner): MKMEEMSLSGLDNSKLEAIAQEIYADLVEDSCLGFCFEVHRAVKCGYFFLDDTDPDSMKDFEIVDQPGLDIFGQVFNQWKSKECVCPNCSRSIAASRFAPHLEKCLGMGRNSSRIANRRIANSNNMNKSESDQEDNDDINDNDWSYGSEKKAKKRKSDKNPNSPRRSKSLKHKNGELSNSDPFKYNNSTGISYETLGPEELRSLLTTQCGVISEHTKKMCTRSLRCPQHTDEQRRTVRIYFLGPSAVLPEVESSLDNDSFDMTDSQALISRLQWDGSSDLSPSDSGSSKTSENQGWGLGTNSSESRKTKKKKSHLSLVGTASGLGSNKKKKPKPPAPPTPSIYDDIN
human GST-USP22 with Sgf11, Sgf73 1-105 and Sus1, sequence (O15265 1-105 partner limits assumed): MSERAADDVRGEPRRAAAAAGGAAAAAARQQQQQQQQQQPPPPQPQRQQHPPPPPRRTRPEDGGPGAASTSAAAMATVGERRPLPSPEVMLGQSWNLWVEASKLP
human GST-USP22 with Sgf11, Sgf73 1-105 and Sus1, sequence (Q9NPA8 whole entry partner): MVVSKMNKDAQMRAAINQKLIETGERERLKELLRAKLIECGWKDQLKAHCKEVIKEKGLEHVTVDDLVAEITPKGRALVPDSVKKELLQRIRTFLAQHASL

IC50 [1]: 300 nM
Molecule: N#Cc1c2c(c(Nc3ccc(CN)cc3)n3c1nc1ccccc13)CCCC2 [Compound S02-S113, (11-((4-aminomethyl)phenyl)amino)-7,8,9,10-tetrahydrobenzo(4,5)imidazole[1,2-b]isoquinoline-6-carbonitrile]
cytotoxicity to Tregs [2]: modest toxicity
toxicity [2]: highly toxic

IC50 [1]: 600 nM
improvement of USP22i-S02 inhibitory activity ([1]; cyano group at R1 position of E ring, versus USP22i-S02): at least 8 folds
USP22 inhibitory activity relative to USP22i-S02 ([1]; in vitro deubiquitination assay): most potent USP22 inhibitory activity
improvement of inhibitory efficacy ([1]; versus S02, in vitro and cell-based studies collectively): 4-8 folds
IC50 ([4]; Homo sapiens, A549 cells, 48 hours, read-out: IC50 inhibition of PD-L1 expression): ~3200 nM
Molecule: N#Cc1ccc(Nc2c3c(c(C#N)c4nc5ccccc5n24)CCCC3)cc1 [Compound S02-S106, 11-((4-cyanophenyl)amino)-7,8,9,10-tetrahydrobenzo(4,5)imidazole[1,2-b]isoquinoline-6-carbonitrile]
cytotoxicity to Tregs [2]: least cytotoxicity
toxicity [2]: without increasing its toxicity
toxicity ([2]; listed as USP22i-S02-S106): without increasing the cytotoxicity
decrease of FoxP3 expression in nTregs ([3]; 2 μg/mL, two days): higher efficacy compared to usp22i-s02
FoxP3 expression levels in Tregs ([3]; concentration of 1-2 ug): dose dependently reduced
efficacy in suppressing PD-L1 expression ([4]; A549 cells, S02-S106 at 2 μM versus S02 at 15 μM): better efficacy than S02 at 15 μM
PD-L1 expression in USP22-null A549 cells ([4]; USP22-null A549 cells): did not further reduce PD-L1 expression
PD-L1 expression in WT A549 cells ([4]; WT A549 cells): dramatically inhibited PD-L1 expression to a level comparable to that of USP22-null A549 cells

Molecule: N,5-dimethyl-5H-indolo[2,3-b]quinolin-11-amine compound with anisole [Compound S202]
cytotoxicity to Tregs [2]: extremely toxic

Molecule: Cn1c2nc3ccccc3c-2c(Nc2ccccc2)c2ccccc21 [Compound S201, N5-methyl-N-phenyl-5H-indolo[2,3-b]quinolin-11-amine]
cytotoxicity to Tregs [2]: extremely toxic
